The values below come from ChEMBL document CHEMBL1156829 (Proc Natl Acad Sci U S A, 2008).

A value given as a limit tells only on which side of the number the result lay.

Broadly, the EC50 is the midpoint of the concentration-response curve. As a reminder, the CC50 is the concentration giving 50% cytotoxicity. A low value points to harm at low concentration.

Data set [1] relates to Plasmodium falciparum. The data set is described as follows: NOVARTIS: Inhibition of Plasmodium falciparum 3D7 (drug-susceptible) proliferation in erythrocyte-based infection assay. The format is functional, organism-based. The note with it: Plasmodium falciparum, 3D7.
In data set [2] the test system is Plasmodium falciparum. The data set is described as follows: NOVARTIS: Inhibition of Plasmodium falciparum W2 (drug-resistant) proliferation in erythrocyte-based infection assay. The format is functional, organism-based. The note with it: Plasmodium falciparum, W2; read-out: EC50.
The nature of data set [3]: NOVARTIS: Cytotoxicity against human hepatocellular carcinoma cell line (Huh7). Format: toxicity, cell-based, Huh-7. The note with it: Huh7 cells (hepatocellular carcinoma cell line).

Consider `CC=C[C@H]1O[C@@](O)([C@H](C)C(O)C(C)[C@@H]2OC(=O)C(OC)=CC(C)=C[C@H](C)[C@H](O)[C@H](CC)[C@H](O)C(C)CC(C)=CC=C[C@H]2OC)C[C@@H](O[C@@H]2C[C@H](O)[C@@H](OC(N)=O)[C@H](C)O2)[C@@H]1C` (some centres undefined), for which the EC50 in data set [1] was over 503 nM; in data set [2] it was under 18.6 nM. The same compound showed a CC50 in data set [3] of over 10000 nM.

Take `FC(F)(F)c1cccc(C=NNc2nc3ccccc3[nH]2)c1`: the EC50 in data set [1] turned out to be 94.6 nM; in data set [2], 115 nM. Further, the CC50 in data set [3] is 63200 nM.

Consider `O=C(CN1CCN(C(=O)c2ccco2)CC1)Nc1ccccc1Br`, for which the EC50 turned out to be 358 nM in data set [1] and 188 nM in data set [2]. The compound further returned a CC50 in data set [3] of over 100000 nM.

For `CN(Cc1cc(-c2ccccc2)ccc1O)CC(O)c1ccccc1` (centres undefined), the values for the EC50 in data set [1] and in data set [2] were 438 nM and 18.1 nM, respectively. In data set [3], this compound came in with a CC50 of over 10000 nM.

As for `Cc1ccc(Cn2c(N3CCC(C(=O)NCc4ccccn4)CC3)nc3ccccc32)cc1`, the EC50 came to 484 nM in data set [1] and 185 nM in data set [2]. This compound also came in with a CC50 in data set [3] of over 100000 nM.

For the compound `FC(F)(F)c1ccccc1NC(=S)N1CCCN(c2nc3ccc(Cl)cc3s2)CC1`, the EC50 in data set [1] was found to be 119 nM; in data set [2] it was 146 nM. In data set [3], this compound gave a CC50 of 77800 nM.

Consider `Cc1ccc(C)c(Oc2c(C(F)(F)F)oc3c(CN4CCN(C)CC4)c(O)ccc3c2=O)c1`, for which the results for the EC50 in data set [1] and in data set [2] were 832 nM and 185 nM, respectively. Further, in data set [3], the CC50 is over 100000 nM.

With `CCOC(=O)c1c(CNCCN(CC)CC)n(C)c2cc(Br)c(O)cc12`, the EC50 in data set [1] was found to be 515 nM; in data set [2], 185 nM. This compound also gave a CC50 in data set [3] of over 100000 nM.

Regarding `N#Cc1c(N)nc(C(Cl)(Cl)Cl)nc1-c1ccccc1`, the values for the EC50 in data set [1] and in data set [2] were 498 nM and 184 nM, respectively. Also, the CC50 in data set [3] is over 100000 nM.

Take `CCOC(=O)C1=C(C)NC2=C(C(=O)CC(C)(C)C2)C1c1ccc(Cl)cc1Cl` (centres undefined): the figures for the EC50 in data set [1] and in data set [2] were 281 nM and 121 nM, respectively. The compound further showed a CC50 in data set [3] of 66000 nM.

`COc1cc(NC(C)CCCN(Cc2ccc(F)cc2)C(=O)C(C)(C)CCl)c2ncccc2c1` (centres undefined): the EC50 in data set [1] was 469 nM; in data set [2], under 3.43 nM. Further, the CC50 in data set [3] is over 1830 nM.

Turning to `COc1ccc2[nH]c(SCC(=O)Nc3cccc(NC(=O)CSc4nc5cc(OC)ccc5[nH]4)n3)nc2c1`, the values for the EC50 in data set [1] and in data set [2] were 123 nM and 95.4 nM, respectively. Besides, the CC50 in data set [3] was over 51000 nM.

Turning to `CC(C)CCN1C(=O)N(CCN(C)C)C(=O)C12CCN(Cc1ccc(O)cc1)CC2`, the EC50 was 740 nM in data set [1] and 123 nM in data set [2]. In addition, in data set [3], the CC50 worked out at 68400 nM.

As for `CCCOc1ccc(C2Sc3ccccc3N=C3C2=C(O)c2ccccc23)cc1OC` (centres undefined), the EC50 in data set [1] is 483 nM; in data set [2], 178 nM. The CC50 in data set [3] was over 100000 nM.

On to `COc1ccc(OC)c(-c2ccc(O)c(CNCC3CC4C=CC3C43CC3)c2)c1` (centres undefined), for which the EC50 in data set [1] amounted to 350 nM; in data set [2] it was 39.8 nM. Moreover, in data set [3], the CC50 turned out to be 20600 nM.

For `CCc1nn(-c2ccccc2)c2nc(-c3cc(Br)ccc3O)c3cc(OC)c(OC)cc3c12`, the EC50 was determined as 466 nM in data set [1] and 192 nM in data set [2]. For the same compound, in data set [3], the CC50 was over 100000 nM.

For `Cc1ccccc1NC(=O)N1CCN(C(=O)c2nc(-c3ccccc3)nc(C)c2C(=O)OC(C)C)CC1C` (centres undefined), the EC50 came to 135 nM in data set [1] and 99.5 nM in data set [2]. Further, in data set [3], the CC50 amounted to 51900 nM.

For `CCCCNC(=O)N1CCN(C(=O)C(Cc2c[nH]c3ccccc23)NC(=O)Nc2cccc(C#N)c2)CC1C` (centres undefined), the EC50 amounted to 154 nM in data set [1] and 191 nM in data set [2]. Moreover, in data set [3], the CC50 is over 100000 nM.

Regarding `COc1cccc(C2C(C(=O)Nc3ccc(C)cc3C)=C(C)Nc3c(C(=O)Nc4ccccc4)cnn32)c1` (centres undefined), the EC50 came out at 590 nM in data set [1] and 190 nM in data set [2]. The CC50 in data set [3] was over 100000 nM.

Turning to `CCOC(=O)C1=C(C)NC2=C(C(=O)CC(c3ccc(OC)cc3)C2)C1c1cccs1` (centres undefined), the EC50 is 833 nM in data set [1] and 189 nM in data set [2]. The compound also gave a CC50 in data set [3] of over 100000 nM.

Consider `COc1ccc(OC)c(-c2ccc(O)c(CN(C)CC(O)c3ccccc3)c2)c1` (centres undefined), for which the EC50 in data set [1] was found to be 243 nM; in data set [2], 124 nM. The compound also displayed a CC50 in data set [3] of 66300 nM.

On to `CCc1c(C)nc2cc(-c3cc(OC)cc(OC)c3)nn2c1NCCCn1ccnc1`, for which the results for the EC50 in data set [1] and in data set [2] were 2870 nM and 185 nM, respectively. Besides, in data set [3], the CC50 is over 100000 nM.

In the case of `CCN(C(=O)CSc1nc(-c2ccc(C(C)C)cc2)no1)c1cccc(C)c1`, the EC50 was 356 nM in data set [1] and 183 nM in data set [2]. In data set [3], this compound gave a CC50 of over 100000 nM.

In the case of `Cc1cc(C)n(N=Cc2ccc(Cl)cc2)c(=O)c1C#N`, the EC50 came out at 1070 nM in data set [1] and 183 nM in data set [2]. Moreover, in data set [3], the 50% cytotoxic concentration (CC50) is over 100000 nM.

With `COC(=O)C1=C(C)NC2=C(C(=O)CC(c3ccc(OC)c(OC)c3)C2)C1c1ccc(Br)cc1` (centres undefined), the EC50 in data set [1] was found to be 450 nM; in data set [2] it was 181 nM. The CC50 in data set [3] was over 100000 nM.

`FC(F)(F)c1cccc(NC(=S)N2CCCC2c2ccccc2Cl)c1` (centres undefined): the results for the EC50 in data set [1] and in data set [2] were 187 nM and 185 nM, respectively. This compound displayed a CC50 in data set [3] of over 100000 nM.

In the case of `COc1ccc(CN2CCOc3ccc(C(C)(O)CN(C)C)cc3C2)cc1C` (centres undefined), the EC50 in data set [1] turned out to be 823 nM; in data set [2] it was 193 nM. Besides, in data set [3], the cytotoxic concentration (CC50) was over 100000 nM.

For the compound `Cc1ccc(NC(=O)C2c3ccccc3C(=O)N(CC(C)C)C2c2cccs2)c(Cl)c1` (centres undefined), the EC50 is 305 nM in data set [1] and 191 nM in data set [2]. The same compound had a CC50 in data set [3] of over 100000 nM.

With `CC[n+]1c(SC)ccc2cc(OC)ccc21`, the EC50 was 92.4 nM in data set [1] and 186 nM in data set [2]. The CC50 in data set [3] is over 100000 nM.

Consider `Cc1ccn2c(NC(C)(C)CC(C)(C)C)c(-c3ccccc3OC(=O)CCc3ccccc3)nc2c1`, for which the figures for the EC50 in data set [1] and in data set [2] were 853 nM and 18.6 nM, respectively. In addition, the CC50 in data set [3] is over 10000 nM.

With `OC(CN1CCN(C/C=C/c2ccccc2)CC1)Cn1c2ccc(Br)cc2c2cc(Br)ccc21` (centres undefined), the figures for the EC50 in data set [1] and in data set [2] were 589 nM and 19.2 nM, respectively. The CC50 in data set [3] is over 10000 nM.

As for `Clc1ccc2c(N3CCCC3)ccnc2c1`, the EC50 in data set [1] was 283 nM; in data set [2], 124 nM. The CC50 in data set [3] came out at 64500 nM.

Regarding `CC(C)C(=O)NCCCCNc1ccnc2cc(Cl)ccc12`, the EC50 in data set [1] is 1600 nM; in data set [2] it was under 18.5 nM. This compound yielded a cytotoxic concentration (CC50) in data set [3] of over 10000 nM.

Turning to `Nc1ccc(N2CCCCCC2)cc1`, the results for the EC50 in data set [1] and in data set [2] were 153 nM and 183 nM, respectively. The compound further gave a CC50 in data set [3] of over 100000 nM.

As for `CC(C)(C)c1ccc2c(c1)CN(C1CCCCC1)CO2`, the EC50 stood at 99 nM in data set [1] and 36.9 nM in data set [2]. For the same compound, the CC50 in data set [3] came to 20800 nM.

With `Fc1cc(F)c(C2SCCN2C(=S)Nc2cccc(C(F)(F)F)c2)c(F)c1` (centres undefined), the EC50 in data set [1] was 273 nM; in data set [2], 187 nM. In data set [3], this compound displayed a CC50 of over 100000 nM.

Regarding `N#Cc1c2c(c(N3CCN(CCO)CC3)n3c1nc1ccccc13)CCC2`, the results for the EC50 in data set [1] and in data set [2] were 207 nM and 177 nM, respectively. The compound further returned a CC50 in data set [3] of over 100000 nM.

On to `Cc1ccn2c(NC(C)(C)CC(C)(C)C)c(-c3ccccc3OC(=O)C3CCCCC3)nc2c1`, for which the EC50 in data set [1] amounted to 654 nM; in data set [2], 18.7 nM. Also, the CC50 in data set [3] was over 10000 nM.
